For assay [1], the system named is immune response elicited by influenza vaccine. As to the kind of experiment: Serum IgG after subcutaneous immunization, FGK-1 versus synthetic GK-1 (Example 4). Format: in vivo, female BALB/cAnN mice. The conditions noted are these: younger mice. As to the method: The following treatment schedules were assessed for five-mouse groups:
(§1) Influenza vaccine was administered at a dose of 1 μg/mouse [A/New Caledonia/20/99(H1N1) strain, A/Panama/2007/99(H3N2) strain (analog to A/Moscow/10/99 strain), and B/Victoria/504/2000 strain (analog to B/Sichuan/379/99 strain)]. FLUZONE® vaccine for the flu season 2004-2005, containing 45 μg of hemagglutinin HA per 0.5 ml-dose, was used.
(§2) Synthetic GK-1 peptide was used at its optimal dose (Segura-Velźquez et al. 2006), in a 10 μg/mouse concentration.
Mice received a single dose of each immunogen by subcutaneous route at the tail base, and the induced response was evaluated in serum 21 days after immunization. Sera were obtained from peripheral blood, centrifuged at 5,000 rpm by 12 min, and aliquots were frozen until analysis.

Assay [2] deals with immune response elicited by intranasally administered influenza vaccine. As to the kind of experiment: Serum IgG after intranasal immunization, FGK-1 versus synthetic GK-1 (Example 5). Format: in vivo, female BALB/cAnN mice. As to the method:
The following treatment schedules were administered to five-mouse groups:
as §1, §2
Mice were administered intranasally one single dose of each immunogen, and the induced response was evaluated in serum and bronchoalveolar lavages in different times after immunization, namely 21 and 45 days. Sera were obtained from peripheral blood, centrifuged at 5,000 rpm by 12 min, and aliquots were frozen until analysis. Bronchoalveolar lavages were obtained by performing intratracheal lavages with 300 μl of saline solution 45 days after immunization.

For “G-Y-Y-Y-P-S-D-P-N-T-F-Y-A-P-P-Y-S-A (GYYYPSDPNTFYAPPYSA) [synthetic GK-1 peptide, 18-amino acid peptide derived from a Taenia solium cysticerci cDNA library]”, the “antibody levels versus vaccine alone” value in assay [1] (co-administered with influenza vaccine) was “does not increase antibody levels”. Besides, in assay [1] (subcutaneous, 21 days), the “antibody response versus influenza vaccine alone” value is recorded as “slightly higher antibody response”. Also, in assay [2], the “potentiation of influenza vaccine by intranasal administration” value is given as “does not potentiate the vaccine”.

For the origin of these results see patent US9446122B2, “Use of GK-1 peptide expressed on M13 filamentous phage as pharmaceutical ingredient to enhance the efficiency of the immune response induced by vaccine or pathogen antigens” (UNIVERSIDAD NACIONAL AUTONOMA DE MEXICO, priority 2011, dated 2016).
